The assay is described as follows: Inhibition of C-terminal Avi/His-tagged IL-17A (1 to 155 residues) (unknown origin) expressed in baculovirus infected insect cells binding with FLAG-tagged/Thrombin cleavage site fused IL-17RA (1 to317 residues) N206D/N256D mutant (unknown origin) expressed in baculovirus infected insect cells measured after 2 hrs by AlphaLISA method. Also noted: species or system Homo sapiens. A general note: Alpha assays give light when donor and acceptor beads are brought close together.

Drawing on ChEMBL document CHEMBL4828772, “Imidazo[1,2-b]pyridazines as IL-17A Inhibitors for Treating Psoriasis, Rheumatoid Arthritis, and Multiple Sclerosis” (ACS Med Chem Lett, 2021), this text covers IC50 for six molecules.

The structures appear in SMILES notation. Where only a bound is given, the exact number is not on record here.

For orientation: IC50 means the concentration that gives 50% inhibition. Molecule `O=C(N[C@H](c1cn2ncc(CN3C[C@@H](C(F)(F)F)NC3=O)cc2n1)C1CCC(F)(F)CC1)c1nonc1C1CC1` showed an IC50 of less than 9.45 nM.
The same measure for `COC[C@H](c1cnn2cc([C@@H](NC(=O)c3nonc3C(F)F)C3CCC(F)(F)CC3)nc2c1)N1C[C@@H](C(F)(F)F)NC1=O`: less than 9.45 nM.
Under `COC[C@H](c1cnn2cc([C@@H](NC(=O)c3conc3C3CC3)C3CCC(F)(F)CC3)nc2c1)N1C[C@@H](C(F)(F)F)NC1=O` stands less than 9.45 nM; under `O=C(N[C@H](c1cn2ncc(CN3C[C@@H](C(F)(F)F)NC3=O)cc2n1)C1CCC(F)(F)CC1)c1nonc1C(F)(F)F`, less than 9.45 nM; under `COC[C@H](c1cnn2cc([C@@H](NC(=O)c3nonc3C(F)(F)F)C3CCC(F)(F)CC3)nc2c1)N1C[C@@H](C(F)(F)F)NC1=O`, less than 9.45 nM.
On to `CC(C)c1nonc1C(=O)N[C@H](c1cn2ncc(CN3C[C@@H](C(F)(F)F)NC3=O)cc2n1)C1CCC(F)(F)CC1`, for which the 50% inhibitory concentration (IC50) was less than 9.45 nM.
